These results are taken from ChEMBL document CHEMBL1121647, “Synthesis and antiviral properties of (Z)-5-(2-bromovinyl)-2'-deoxyuridine” (1981).

Values after ≈ are worked out from the molar mass of the structure shown.

What all share (type): functional
The subject of assay [1] is Human alphaherpesvirus 2. The assay is described as follows: Minimum inhibitory concentration required to reduce HSV-2 (G) strain-induced cytopathogenicity in primary rabbit kidney cell cultures.
For assay [2], the system named is Human alphaherpesvirus 1. The assay is described as follows: Minimum inhibitory concentration required to reduce HSV-1 (KOS) strain-induced cytopathogenicity in primary rabbit kidney cell cultures. (In general: Damage to the host cells serves as the signal in cytopathic effect assays.)
Assay [3] relates to Vesicular stomatitis virus. The assay is described as follows: Minimum inhibitory concentration required to reduce vesicular stomatis virus-induced cytopathogenicity in primary rabbit kidney cell cultures.
Assay [4] has as its system Human alphaherpesvirus 2. The assay is described as follows: Minimum inhibitory concentration required to reduce HSV-2 (196) strain-induced cytopathogenicity in primary rabbit kidney cell cultures.
Assay [5] concerns Human alphaherpesvirus 1. The assay is described as follows: Minimum inhibitory concentration required to reduce HSV-1 (F) strain-induced cytopathogenicity in primary rabbit kidney cell cultures.
Assay [6] concerns Human alphaherpesvirus 1. The assay is described as follows: Minimum inhibitory concentration required to reduce HSV-1 (McIntyre) strain-induced cytopathogenicity in primary rabbit kidney cell cultures.
For assay [7], the system named is Human alphaherpesvirus 2. The assay is described as follows: Antiviral activity expressed as minimum HSV-2 (Lyons) strain-induced cytopathogenicity in primary rabbit kidney cell cultures.
Assay [8] deals with Human alphaherpesvirus 2. The assay is described as follows: Minimum inhibitory concentration required to reduce HSV-2 (Lyons) strain-induced cytopathogenicity in primary rabbit kidney cell cultures.

As to `O=c1[nH]c(=O)n([C@H]2C[C@H](O)[C@@H](CO)O2)cc1/C=C/Br` [BRIVUDINE], the MIC against Human alphaherpesvirus 2 [1] was 0.7 µg/mL (≈ 2.1 µM); with Human alphaherpesvirus 1 [2], 0.02 µg/mL (≈ 0.06 µM); in assay [3] it was greater than 200 µg/mL; against Human alphaherpesvirus 2 [4] it was 0.4 µg/mL (≈ 1.2 µM); against Human alphaherpesvirus 1 [5], 0.02 µg/mL (≈ 0.06 µM); with Human alphaherpesvirus 1 [6] it was 0.01 µg/mL (≈ 0.03 µM). In the assay on Human alphaherpesvirus 2 [7], this molecule came in with an MIC of 0.4 µg/mL (≈ 1.2 µM).

On to `O=c1[nH]c(=O)n([C@H]2C[C@H](O)[C@@H](CO)O2)cc1/C=C\Br`, for which the MIC in the assay with Human alphaherpesvirus 2 [1] was 2 µg/mL (≈ 6 µM); against Human alphaherpesvirus 1 [2], 4 µg/mL (≈ 12 µM); in the assay on Human alphaherpesvirus 2 [8], 4 µg/mL (≈ 12 µM); in assay [3], greater than 200 µg/mL; in the assay with Human alphaherpesvirus 2 [4] it was 4 µg/mL (≈ 12 µM); against Human alphaherpesvirus 1 [5], 2 µg/mL (≈ 6 µM). The MIC in the assay with Human alphaherpesvirus 1 [6] stood at 1 µg/mL (≈ 3 µM).

With `O=c1[nH]c(=O)n([C@H]2C[C@H](O)[C@@H](CO)O2)cc1I` [IDOXURIDINE], the MIC in the assay on Human alphaherpesvirus 2 [1] is 0.4 µg/mL (≈ 1.13 µM); in the assay with Human alphaherpesvirus 1 [2] it was 0.2 µg/mL (≈ 0.565 µM); in assay [3], greater than 200 µg/mL; in the assay with Human alphaherpesvirus 2 [4], 0.4 µg/mL (≈ 1.13 µM); against Human alphaherpesvirus 1 [5], 0.2 µg/mL (≈ 0.565 µM); in the assay on Human alphaherpesvirus 1 [6] it was 0.2 µg/mL (≈ 0.565 µM). In the assay with Human alphaherpesvirus 2 [7], the MIC turned out to be 0.2 µg/mL (≈ 0.565 µM).
